Experimental data taken from article PMC4940876, “Post-paralysis tyrosine kinase inhibition with masitinib abrogates neuroinflammation and slows disease progression in inherited amyotrophic lateral sclerosis” (Journal of Neuroinflammation, 2016).

Target: T1, CSF-1R (colony-stimulating factor 1 receptor) (Homo sapiens, UniProt P07333)
T1 construct: gene CSF1R; CSF-1R kinase domain (AA 538–972), N-terminus 6HN-tagged, expressed in Sf21 cells
T1 sequence (P07333 538-972): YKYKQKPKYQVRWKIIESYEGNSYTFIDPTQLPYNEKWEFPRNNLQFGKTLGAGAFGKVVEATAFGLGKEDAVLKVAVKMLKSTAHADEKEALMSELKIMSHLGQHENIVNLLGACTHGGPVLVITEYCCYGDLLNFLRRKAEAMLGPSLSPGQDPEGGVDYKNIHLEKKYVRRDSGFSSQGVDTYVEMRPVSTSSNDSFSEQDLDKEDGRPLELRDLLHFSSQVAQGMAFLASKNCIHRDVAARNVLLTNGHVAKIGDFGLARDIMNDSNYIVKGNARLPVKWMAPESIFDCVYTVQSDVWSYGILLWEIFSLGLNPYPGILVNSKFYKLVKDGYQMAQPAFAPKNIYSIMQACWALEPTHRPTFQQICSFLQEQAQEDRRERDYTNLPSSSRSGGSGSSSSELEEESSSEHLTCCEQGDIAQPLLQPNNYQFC
Test: HTRF KinEASE kinase assay with biotinylated poly(Glu4Tyr) peptide, […] ATP
Format: biochemical

Cc1ccc(NC(=O)c2ccc(CN3CCN(C)CC3)cc2)cc1Nc1nc(-c2cccnc2)cs1 [masitinib]
IC50: 90 ± 35 nM
